Assay results from patent US20250221960A1, “COMPOSITIONS AND METHODS FOR THE TREATMENT OF DEPRESSION” (Janssen Pharmaceuticals, Inc., priority 2022, published 2025).

Tested on: subjects with MDD
Experiment: MADRS total score, adjunctive aticaprant vs placebo (Example 1)
Details: for MADRS Total Score Change from Baseline LSMean (SE), MMRM / MADRS Total Score LSMean Difference (SE) Treatment - Placebo, MMRM / MADRS Total Score Effect Size vs placebo / MADRS Total Score Mean Change from Baseline (SD): 10 mg
[1] = High anhedonia, Treatment Week 1, fITT
[2] = High anhedonia, Treatment Week 3, fITT
[3] = High anhedonia, Treatment Week 4, fITT
[4] = High anhedonia, Treatment Week 5, fITT
[5] = High anhedonia, Treatment Week 6, fITT
[6] = Low anhedonia, Treatment Week 1, fITT
[7] = Low anhedonia, Treatment Week 3, fITT
[8] = Low anhedonia, Treatment Week 4, fITT
[9] = Low anhedonia, Treatment Week 5, fITT
[10] = Low anhedonia, Treatment Week 6, fITT

**Q.** For `Cc1cc(C)cc(C2CCCN2Cc2ccc(Oc3ccc(C(N)=O)cc3F)cc2)c1` (centres unmarked) [aticaprant, 3-fluoro-4-4-2-(3,5-dimethylphenyl) pyrrolidin-1-yl-methylphenoxybenzamide], which “MADRS Total Score: Mean Change from Baseline (SD)” value (High anhedonia (SHAPS >=38 at treatment baseline), Treatment Week 1, fITT) is on record?
**A.** −4.4 (5.04)

**Q.** And the “MADRS Total Score: Effect size” value [1]?
**A.** −0.45

**Q.** And the “MADRS Total Score: Mean Change to Placebo (SD pooled)” value [1]?
**A.** −2.0 (4.38)

**Q.** What about the “MADRS Total Score: Effect size” value [2] of the same compound?
**A.** −0.54

**Q.** And the “MADRS Total Score: Mean Change from Baseline (SD)” value [2]?
**A.** −6.9 (6.66)

**Q.** And the “MADRS Total Score: Mean Change to Placebo (SD pooled)” value [2]?
**A.** −3.8 (6.94)

**Q.** And the “MADRS Total Score: Effect size” value [3]?
**A.** −0.50

**Q.** And the “MADRS Total Score: Mean Change from Baseline (SD)” value [3]?
**A.** −8.6 (7.32)

**Q.** And the “MADRS Total Score: Mean Change to Placebo (SD pooled)” value [3]?
**A.** −3.8 (7.56)

**Q.** And the “MADRS Total Score: Effect size” value [4]?
**A.** −0.51

**Q.** What about the “MADRS Total Score: Mean Change from Baseline (SD)” value [4] of the same compound?
**A.** −10.2 (8.04)

**Q.** And the “MADRS Total Score: Mean Change to Placebo (SD pooled)” value [4]?
**A.** −4.0 (7.87)

**Q.** What about the “MADRS Total Score: Effect size” value [5] of the same compound?
**A.** −0.51

**Q.** And the “MADRS Total Score: Mean Change from Baseline (SD)” value [5]?
**A.** −11.3 (8.69)

**Q.** What about the “MADRS Total Score: Mean Change to Placebo (SD pooled)” value [5] of the same compound?
**A.** −4.6 (9.03)

**Q.** What about the “MADRS Total Score: Mean Change from Baseline (SD)” value (Low anhedonia (SHAPS >=20 and <38 at treatment baseline), Treatment Week 1, fITT) of the same compound?
**A.** −2.4 (4.59)

**Q.** What about the “MADRS Total Score: Effect size” value [6] of the same compound?
**A.** −0.24

**Q.** And the “MADRS Total Score: Mean Change to Placebo (SD pooled)” value [6]?
**A.** −1.0 (4.39)

**Q.** What about the “MADRS Total Score: Effect size” value [7] of the same compound?
**A.** −0.08

**Q.** And the “MADRS Total Score: Mean Change from Baseline (SD)” value [7]?
**A.** −4.1 (6.67)

**Q.** What about the “MADRS Total Score: Mean Change to Placebo (SD pooled)” value [7] of the same compound?
**A.** −0.5 (6.37)

**Q.** What about the “MADRS Total Score: Effect size” value [8] of the same compound?
**A.** −0.23

**Q.** What about the “MADRS Total Score: Mean Change from Baseline (SD)” value [8] of the same compound?
**A.** −6.4 (6.77)

**Q.** What about the “MADRS Total Score: Mean Change to Placebo (SD pooled)” value [8] of the same compound?
**A.** −1.5 (6.65)

**Q.** What about the “MADRS Total Score: Effect size” value [9] of the same compound?
**A.** −0.10

**Q.** And the “MADRS Total Score: Mean Change from Baseline (SD)” value [9]?
**A.** −7.3 (6.90)

**Q.** What about the “MADRS Total Score: Mean Change to Placebo (SD pooled)” value [9] of the same compound?
**A.** −0.7 (6.86)

**Q.** What about the “MADRS Total Score: Effect size” value [10] of the same compound?
**A.** −0.29

**Q.** What about the “MADRS Total Score: Mean Change from Baseline (SD)” value [10] of the same compound?
**A.** −8.8 (7.48)

**Q.** What about the “MADRS Total Score: Mean Change to Placebo (SD pooled)” value [10] of the same compound?
**A.** −2.3 (7.80)

**Q.** What about the “Change from Treatment Baseline in MADRS Total Score, Least Squares Mean Difference point estimate” value (Treatment Week 6, both responders and non-responders during placebo lead-in, 10 mg vs placebo) of the same compound?
**A.** −3.1 score on a scale

**Q.** And the “MADRS LSMeans difference estimate, supplementary MMRM analysis (data prior to 15 Mar. 2020, COVID-19)” value (eITT)?
**A.** −3.0

**Q.** What about the “MADRS Total Score Mean Change to Placebo” value (eITT, High anhedonia (baseline SHAPS >=38), Treatment Week 1) of the same compound?
**A.** −1.8

**Q.** And the “MADRS Total Score Mean Change to Placebo” value (eITT, High anhedonia (baseline SHAPS >=38), Treatment Week 3)?
**A.** −3.0

**Q.** What about the “MADRS Total Score Mean Change to Placebo” value (eITT, High anhedonia (baseline SHAPS >=38), Treatment Week 4) of the same compound?
**A.** −2.2

**Q.** What about the “MADRS Total Score Mean Change to Placebo” value (eITT, High anhedonia (baseline SHAPS >=38), Treatment Week 5) of the same compound?
**A.** −2.6

**Q.** What about the “MADRS Total Score Mean Change to Placebo” value (eITT, High anhedonia (baseline SHAPS >=38), Treatment Week 6) of the same compound?
**A.** −3.4

**Q.** What about the “MADRS Total Score Mean Change to Placebo” value (eITT, Low anhedonia (baseline SHAPS >=20 and <38), Treatment Week 1) of the same compound?
**A.** −0.5

**Q.** And the “MADRS Total Score Mean Change to Placebo” value (eITT, Low anhedonia (baseline SHAPS >=20 and <38), Treatment Week 3)?
**A.** −0.1

**Q.** And the “MADRS Total Score Mean Change to Placebo” value (eITT, Low anhedonia (baseline SHAPS >=20 and <38), Treatment Week 4)?
**A.** 0.0

**Q.** What about the “MADRS Total Score Mean Change to Placebo” value (eITT, Low anhedonia (baseline SHAPS >=20 and <38), Treatment Week 5) of the same compound?
**A.** 0.3

**Q.** What about the “MADRS Total Score Mean Change to Placebo” value (eITT, Low anhedonia (baseline SHAPS >=20 and <38), Treatment Week 6) of the same compound?
**A.** −0.9

**Q.** And the “MADRS Total Score Change from Baseline LSMean (SE), MMRM” value (“MADRS Total Score Change … (SE), MMRM” below) (eITT, Treatment Week 1)?
**A.** 3.2

**Q.** And the “MADRS Total Score LSMean Difference (SE) Treatment - Placebo, MMRM” value (eITT, Treatment Week 1)?
**A.** −1.2

**Q.** And the “MADRS Total Score Effect Size vs placebo” value (eITT, Treatment Week 3)?
**A.** −0.22

**Q.** And the “MADRS Total Score LSMean Difference (SE) Treatment - Placebo, MMRM” value (eITT, Treatment Week 3)?
**A.** −1.5

**Q.** And the “MADRS Total Score Effect Size vs placebo” value (eITT, Treatment Week 4)?
**A.** −0.14

**Q.** And the “MADRS Total Score LSMean Difference (SE) Treatment - Placebo, MMRM” value (eITT, Treatment Week 4)?
**A.** −1.1

**Q.** What about the “MADRS Total Score Effect Size vs placebo” value (eITT, Treatment Week 5) of the same compound?
**A.** −0.14

**Q.** And the “MADRS Total Score LSMean Difference (SE) Treatment - Placebo, MMRM” value (eITT, Treatment Week 5)?
**A.** −1.5

**Q.** What about the “percentage of subjects with MADRS remission (MADRS total score≤10)” value (eITT, Treatment Week 6) of the same compound?
**A.** 16.9%

**Q.** And the “MADRS Total Score LSMean Difference (SE) Treatment - Placebo, MMRM” value (eITT, Treatment Week 6)?
**A.** −2.1

**Q.** And the “MADRS LSMeans difference estimate, supplementary MMRM analysis (data prior to 15 Mar. 2020, COVID-19)” value (fITT)?
**A.** −3.4

**Q.** What about the “onset of significant treatment effect (MADRS LS mean change from baseline)” value (fITT, FIG. 7B) of the same compound?
**A.** 3 week

**Q.** What about the “MADRS Total Score LSMean Difference (SE) Treatment - Placebo, MMRM” value (fITT, Treatment Week 1) of the same compound?
**A.** −1.6

**Q.** And the “MADRS Total Score Mean Change from Baseline (SD)” value (fITT, Treatment Week 1)?
**A.** −3.1

**Q.** And the “MADRS Total Score Change … (SE), MMRM” value (fITT, Treatment Week 3)?
**A.** −5.2

**Q.** What about the “MADRS Total Score Effect Size vs placebo” value (fITT, Treatment Week 3) of the same compound?
**A.** −0.26

**Q.** And the “MADRS Total Score LSMean Difference (SE) Treatment - Placebo, MMRM” value (fITT, Treatment Week 3)?
**A.** −1.9

**Q.** And the “MADRS Total Score Mean Change from Baseline (SD)” value (fITT, Treatment Week 3)?
**A.** −5.1

**Q.** What about the “MADRS Total Score Effect Size vs placebo” value (fITT, Treatment Week 4) of the same compound?
**A.** −0.32

**Q.** And the “MADRS Total Score LSMean Difference (SE) Treatment - Placebo, MMRM” value (fITT, Treatment Week 4)?
**A.** −2.5

**Q.** And the “MADRS Total Score Mean Change from Baseline (SD)” value (fITT, Treatment Week 4)?
**A.** −7.2

**Q.** What about the “MADRS Total Score Effect Size vs placebo” value (fITT, Treatment Week 5) of the same compound?
**A.** −0.26

**Q.** And the “MADRS Total Score LSMean Difference (SE) Treatment - Placebo, MMRM” value (fITT, Treatment Week 5)?
**A.** −2.4

**Q.** And the “MADRS Total Score Mean Change from Baseline (SD)” value (fITT, Treatment Week 5)?
**A.** −8.3

**Q.** What about the “percentage of subjects with MADRS remission (MADRS total score≤10)” value (fITT, Treatment Week 6) of the same compound?
**A.** 31.2%

**Q.** What about the “MADRS Total Score Change … (SE), MMRM” value (fITT, Treatment Week 6) of the same compound?
**A.** −9.6

**Q.** And the “MADRS Total Score LSMean Difference (SE) Treatment - Placebo, MMRM” value (fITT, Treatment Week 6)?
**A.** −3.1

**Q.** And the “MADRS total score difference between aticaprant and placebo” value (fITT, low anhedonia level (n=94), Treatment Week 6)?
**A.** −2.3

**Q.** And the “LSMD (MADRS) in high anhedonia group relative to low anhedonia group” value (week 6)?
**A.** more than double
